Results from patent publication US20080004266A1, “Method for treating proliferative disorders associated with protooncogene products” (priority 2006, published 2008).

Test system: human tumor cell line Kasumi-1
Assay: Kasumi-1 (c-Kit N822K) SCID mouse xenograft model
Type: in vivo, human (xenograft in SCID mouse)
Conditions: for % T/C value: SCID mice
Excerpt: The human acute myelogenous leukemia cell line, Kasumi-1 (ATCC #CRL-2724), was obtained from the American Type Culture Collection (ATCC; Manassas, Va., USA). Growth of this tumor cell line is dependent upon the expression of an activated form of the c-Kit tyrosine kinase receptor carrying a N822K mutation (A. Beghini, et al., Exp. Hematol. 33:682-688, 2005). […] FBS was obtained from ATCC and all other reagents were obtained from Invitrogen Corp. (Carlsbad, Calif., USA). Cells that had been cryopreserved in liquid nitrogen were rapidly thawed at 37° C. and transferred to a tissue culture flask containing growth media and then incubated at 37° C. in a 5% CO2 incubator. To expand the cell line, cultures were passaged 1:2 to a density of 5×10 (6) cells/ml every three days by adding an equal volume of fresh growth media. When the flasks reached a density of approximately 10×10 (6) cells/ml, the above passaging process was repeated until sufficient cells had been obtained for implantation into mice.
Seven to eight week old, female CB17/Icr-Prkdc^scid/Crl (SCID) mice were obtained from Charles River Laboratories (Wilmington, Mass., USA). […]
Tumors were then permitted to develop in vivo until the majority reached 100-200 mm^3 in tumor volume, which typically required 4-5 weeks following implantation. […] Tumor volumes (V) were calculated by caliper measurement of the width (W), length (L) and thickness (T) of tumors using the following formula: V=0.5236×(L×W×T). Animals were randomized into treatment groups so that the median tumor volumes of each group were similar at the start of dosing. % T/C values, as a measure of efficacy, were determined as follows: • (vi) If ΔT>0: % T/C=(ΔT/ΔC)×100 • (vii) If ΔT<0: % T/C=(ΔT/T0)×100 • (viii) ΔT=Change in median tumor volume between start of dosing and the end of study. • (ix) ΔC=Change in median tumor volume between start of dosing and the end of study. • (x) T0=Median tumor volume at start of dosing. […]

CC(C)c1cc(-c2nnc(O)n2-c2ccc3c(ccn3C)c2)c(O)cc1O [Compound 226, 3-(2,4-di-hydroxy-5-isopropyl-phenyl)-4-(1-methyl-indol-5-yl)-5-hydroxy-[1,2,4] triazole]
average bodyweight gain relative to the start of the study (25 mg/kg i.v. 5 times per week, day 50): +0.7% (+/−2.0 SEM)
% T/C value (25 mg/kg i.v. 5 times per week, 14 doses, day 50): −15.3%
% T/C value (single dose of 25 mg/kg on day 30, observed day 33 (3 days after the first dose)): −4.1%
